Data taken from patent US20220152144A1, “FOOD ADDITIVE INCLUDING MANNAN OLIGOSACCHARIDES TO ENHANCE ANIMAL PERFORMANCE AND METHOD OF USING THE SAME” (Vitech Bio-Chem Corporation, priority 2020, published 2022).

Key:
[1] = Growth performance of broiler chicks fed supplemented diets (Example 1); format: in vivo, broiler chicks (Cobb500); conditions: dose 45 ppm
Description: Materials and Methods. Broiler chicks: A total of 960 1-day old broiler chicks (Name of breed: Cobb500™) (8 trt×6 rep×20 birds/pen) were randomly allocated to 8 treatment groups. Treatment groups: Treatment 1 was a corn/soybean meal diet (PC: 45 ppm avilamycin); Treatment 2 was a PC+50 g/T Fish hydrolysate+MOS (80:20 ratio); Treatment 3 was a PC+100 g/T Fish hydrolysate+MOS (80:20); and treatment 4 was PC+200 g/T Fish hydrolysate+MOS (80:20).
(§1) The trial was conducted for 42 days. Body weight gain, feed intake, and FCR was measured at 14, 28, and 42 days. Cecal levels of E. coli, Salmonella, and lactobacillus were evaluated at 21 days.
Measurements: Individual broiler weights and feed intake was collected in order to calculate body weight and body weight gain, feed intake, and gain-to-feed ratio by phase.
One-way ANOVA and Duncan's multiple range test was used to separate the means. There is no difference found between treatments. The overall mortality during the 42 days period is 3.65% and it is non-treatment specific.

E. coli = assay: Bacterial counts in cecal samples of broiler chicks: E. coli; format: in vivo; conditions: 21 days, dose 45 ppm
Description: as §1

Lactobacilli = assay: Bacterial counts in cecal samples of broiler chicks: Lactobacilli; format: in vivo; conditions: 21 days, dose 45 ppm
Description: as §1

## COC[C@H]1O[C@@H](OC2OC[C@@H]3O[C@]4(O[C@H]3[C@H]2OC(=O)C(C)C)O[C@H](C)[C@@](O)(C(C)=O)[C@@H]2OCO[C@H]24)[C@@H](OC)[C@@H](O)[C@@H]1O[C@@H]1O[C@H](C)[C@H](OC)[C@H](O[C@H]2C[C@@]3(C)OC4(C[C@@H](O)[C@H](O[C@H]5C[C@@H](O)[C@H](OC(=O)c6c(C)c(Cl)c(O)c(Cl)c6OC)[C@@H](C)O5)[C@@H](C)O4)O[C@@H]3[C@@H](C)O2)[C@H]1O (stereo partly shown) [Avilamycin, avilamycin]
[1]; Day 0-14
  body weight (BW): 442 g
  body weight gain (BWG): 402 g
  feed intake (FI): 583 g
  food conversion ratio (FCR): 1.453
[1]; Day 0-28
  body weight (BW): 1,550 g
  body weight gain (BWG): 1,510 g
  feed intake (FI): 2,212 g
  food conversion ratio (FCR): 1.472
[1]; Day 14-28
  body weight (BW): 1,550 g
  body weight gain (BWG): 1,108 g
  feed intake (FI): 1,628 g
  food conversion ratio (FCR): 1.542
[1]; d 28-42
  body weight (BW): 2,784 g
  body weight gain (BWG): 1,235 g
  feed intake (FI): 2,601 g
  food conversion ratio (FCR): 2.123
[1]; overall 0-42 days
  body weight (BW): 2,784 g
  body weight gain (BWG): 2,745 g
  feed intake (FI): 4,813 g
  food conversion ratio (FCR): 1.753
E. coli
  E. coli Counts: 7.29a Log10 CFU/g
Lactobacilli
  Lactobacilli Counts: 7.21 Log10 CFU/g
